Measured values reported in patent US20070208086A1, “UBIQUINONE ANALOGS AND METHODS OF USE” (THE REGENTS OF THE UNIVERSITY OF CALIFORNIA, priority 2006, published 2007).

Experiment: Determination of reduction potentials by cyclic voltametry (CV)
Type: physicochemical
From the text: In one embodiment, the compound of the invention has a reduction potential, which is different from the reduction potential of CoQ10. In an exemplary embodiment, the reduction potential found for the compound of the invention is lower than the reduction potential of CoQ10. Methods for the determination of reduction potentials are known in the art and are, for example, described in A. J. Fry, Synthetic Organic Electrochemistry, 2nd Ed., Wiley-Interscience, New York, 1989. For example the reduction potential is measured against the Ag/AgNO3 redox system. “Reduction potential” can mean “first reduction potential”, in which a first electron is transferred (e.g., Q→Q ? ), or “second reduction potential”, in which a second electron is transferred (e.g., Q ? →Q^−2). Typically, “reduction potential” for the purpose of comparing compounds, means the first reduction potential. However, for certain compounds a distinction between a first and a second reduction potential cannot be measured. In these cases, the “overall” (measurable) reduction potential is used to compare reduction potential values of compounds. The reduction potentials for selected ubiquinone analogs of the invention are summarized in Example 12, below. For example, while the first reduction potential of CoQ10 in a particular assay is −1.11, the first reduction potential found for compound 9 is −1.22, which is lower than −1.11. In another example, the overall reduction potential for compound 7 is −1.44, which is lower than −1.11 for CoQ10. In an exemplary embodiment, the ratio (a/b) between the reduction potential of a compound of the invention (a) and the reduction potential of CoQ10 to (b) in a particular assay is between about 1 and about 50. In another exemplary embodiment, the ratio is between about 1 and about 40, preferably between about 1 and about 30, more preferably between about 1 and about 20, and even more preferably between about 1 and about 10. In yet another exemplary embodiment, the ratio is between about 1 and about 8 preferably between about 1 and about 6, more preferably between about 1 and about 4, and most preferably between about 1 and about 2.
The redox chemistry of a variety of purified ubiquinones of the invention was examined using cyclic voltametry (CV). Methods for the determination of reduction potentials are known in the art and are, for example, described in A. J. Fry, Synthetic Organic Electrochemistry, 2nd Ed., Wiley-Interscience, New York, 1989.
The resulting redox data (including those for CoQ10) are listed in the order of increasing first-wave potentials (Epc1) in Table 1, below. The abbreviation Epc1 and Epc2 are used to represent the values of the first and second cathodic peak potentials, respectively. The peak potentials correspond to the first and second reduction wave minima in the recorded CV graphs (see e.g., FIG. 1).
The value of the second peak potential is, typically, an approximation. Chemical side reactions coupled to the transient species generated in the first reduction may contribute to the shape of the wave, and thus the peak potential. […] Representative first and second reduction waves for analogs 1 and 23, as well as for CoQ10, are illustrated in FIG. 1, which represents an expanded portion of the recorded CV graph.

For COC1=C(OC)C(=O)C(C/C=C(\C)CC/C=C(\C)CC/C=C(\C)CC/C=C(\C)CC/C=C(\C)CC/C=C(\C)CC/C=C(\C)CC/C=C(\C)CC/C=C(\C)CCC=C(C)C)=C(C)C1=O [CoQ10], which “Q/Q*− (Epc1), first wave potential” value (Epc vs. Ag/AgNO3 in DMF, first cathodic peak potential) is on record?
Its value is −1.11 V.

And the “Q*−/Q−2 (Epc2), second wave potential” value (Epc vs. Ag/AgNO3 in DMF, second cathodic peak potential, typically an approximation)?
Its value is −1.42 V.

And the first reduction potential (FIG. 1 reduction waves)?
The first reduction potential was -1.11 V.

And the second reduction potential (FIG. 1 reduction waves)?
The second reduction potential was -1.42 V.

And the first reduction potential (in a particular assay)?
The first reduction potential was −1.11.
